Measured values: US11191811B2, “Osteocalcin as a treatment for frailty associated with aging” (THE TRUSTEES OF COLUMBIA UNIVERSITY IN THE CITY OF NEW YORK, priority 2014, dated 2021)

What was measured:
WT myotubes [1] = assay: 3H-2-deoxyglucose uptake in myotubes; type: cell-based, mouse
Description: (§1) The main nutrient used by muscle to generate energy at the onset of exercise is glucose and osteocalcin increased the uptake of ^3H-2-deoxyglucose (^3H-2DG) in WT but not in Gprc6a−/− myotubes (FIG. 26D-E). To exclude the involvement of other secreted molecules, this experiment was performed in serum-free conditions. […] This decrease in glucose uptake in muscles of Gprc6aMck−/− mice provides an explanation for why blood glucose levels were two-fold higher in Gprc6aMck−/− and Gprc6aHsa−/− than in control mice after exercise (FIG. 26G-H).
(§2) Glucose and insulin tolerance tests were performed as previously described (Lee et al., 2007, Cell 130:456-469). For in vivo glucose uptake, a bolus of 2-deoxy-d-[^3H]glucose (^3H-2-DG, Perkin Elmer) (10 μCi) was administered before an endurance run. ^3H-2-DG and ^3H-2-DG-6-P content in muscle was determined by liquid scintillation counter and normalized to muscle weight. Glucose uptake and fatty acid oxidation assays in myotubes were performed as previously described (Sebastian et al., 2007, Am. J. Physiol. Endocrinol. Metab. 292:E667-686). GLUT4 translocation was determined by flow cytometry using an antibody against the extracellular domain of the GLUT4 protein (Santa Cruz, Sc-1606). Measurements of oxygen consumption rates (OCR) in isolated myofibers were performed using a XF24 Seahorse Analyzer® (Seahorse Biosciences). To analyze mitochondrial function, myofibers were treated with three compounds in succession (oligomycin 10 μg/ml, FCCP 200 μM, rotenone 0.2 μM) and OCR was recorded following administration of each of them.
(§3) Culture of skeletal muscle myoblasts from 7 day-old mice was performed as described (Gharaibeh et al., 2008, Nature Protocols 3:1501-1509). Myoblasts were differentiated into myotubes for 3-4 days in a medium containing 5% horse serum. Muscle fibers were isolated from flexor digitorum brevis muscle. Muscles were dissected with DMEM 2% collagenase for 2 hours at 37° C., in a 5% CO2 incubator. […]

Gprc6a−/− myotubes [2] = assay: 3H-2-deoxyglucose uptake in myotubes; type: cell-based, mouse; details: serum-free conditions
Description: as §1, §2, §3

wild type mice = assay: Insulin sensitivity test after subcutaneous infusion; type: in vivo, mouse; details: 0.3 or 3 ng/hour subcutaneously for 18 days, 0-120 minutes after insulin injection
Description: FIG. 3. Osteocalcin subcutaneous infusion increases insulin sensitivity in wild-type mice. Wild-type mice were infused subcutaneously with indicated doses of recombinant osteocalcin or PBS for 18 days before receiving a single injection of insulin. Blood glucose was measured thereafter at indicated times.
The effect of uncarboxylated osteocalcin on insulin sensitivity was also examined. Wild type mice were infused subcutaneously with 0.3 or 3 ng/hour doses of recombinant osteocalcin or PBS for 18 days before receiving a single injection of insulin. Blood glucose was measured thereafter at the indicated times from 0-120 minutes after injection.

WT myotubes [3] = assay: cAMP accumulation in myotubes; type: cell-based, mouse; details: Ocn 10 ng/ml
Description: (§4) FIG. 25. Osteocalcin signaling in myofibers is necessary for muscle function during exercise. (A) Serum total osteocalcin (Ocn) and insulin (Ins) levels measured in mice at rest or after a single bout of exercise (40 min, 30 cm/s running on a treadmill) (n=7 per group). (B) Serum uncarboxylated (uncarb)-Ocn levels measured in mice at rest and 0, 1, 2 and 4 hours after a single bout of exercise (40 min, 30 cm/s running on a treadmill) (n=7 per group). (C) Serum CTX levels in mice at rest and after a single bout of exercise (n=7 per group). (D) Performance during endurance exercise of 3 month-old female Ocn-deficient and WT littermates (n=8-10 per group). (E) Performance during endurance exercise of 3 month-old Ocn f/f and OcnOsb−/− littermates (n=3-5 per group). (F) Performance during endurance exercise of 3 month-old female Gprc6a-deficient and WT littermates (n=8-10 per group). (G) Gprc6a expression in various tissues. (H) Gprc6a expression in EDL and soleus muscles (n=3). (I) In situ hybridization analysis of Gprc6a expression in soleus muscle. (J) Gprc6a expression in WT and Ocn−/− muscles (n=6 per group). […]
(§5) Serum osteocalcin, PINP, CTX, and insulin levels were measured using ELISA assays. Blood glucose level was measured using an Accu-Check glucometer. Urine 3-MHT was measured as previously described (Aranibar et al., 2011, Anal. Biochem. 410:84-91). […]

Gprc6a−/− myotubes [4] = assay: cAMP accumulation in myotubes; type: cell-based, mouse; details: Ocn 10 ng/ml
Description: as §4, §5

wild-type = assay: Glycolysis, extracellular acidification rate (ECAR); type: cell-based, mouse; details: ECAR (FIG. 20); in muscle
From the text: FIG. 20. Osteocalcin favors glycolysis. (a) Effect of increasing amounts of uncarboxylated osteocalcin on change in extracellular acidification rate (ECAR) in wild-type mice. The effect of insulin is also shown for comparison. (B) Effect of uncarboxylated osteocalcin on ECAR of wild-type and Gprc6a^−/− mice. (C) L-lactate production in wild-type and Gprc6a^−/− mice.

**Q.** How did the “uptake of 3H-2-deoxyglucose (3H-2DG)” value (WT myotubes [1]; WT myotubes, serum-free conditions) turn out when “uncarboxylated osteocalcin: Recombinant uncarboxylated mouse osteocalcin, bacterially produced, purified on glutathione beads and cleaved from the GST subunit by thrombin (YLGASVPSPDPLEPTREQCELNPACDELSDQYGLKTAYKRIYGITI)” was run?
**A.** increased

**Q.** What about the glucose uptake (WT myotubes [1]; as worded in FIG. 19 (wild-type) and summary (in muscle)) of the same substance?
**A.** favors

**Q.** What about the “uptake of 3H-2-deoxyglucose (3H-2DG)” value (Gprc6a−/− myotubes [2]) of the same substance?
**A.** not

**Q.** What about the insulin sensitivity (wild type mice) of the same substance?
**A.** increased

**Q.** And the insulin sensitivity (wild type mice; listed as Osteocalcin)?
**A.** increases

**Q.** What about the cAMP production (WT myotubes [3]) of the same substance?
**A.** increase

**Q.** What about the cAMP production (Gprc6a−/− myotubes [4]) of the same substance?
**A.** did not increase

**Q.** And the glycolysis (wild-type)?
**A.** favors
